Structures are written as SMILES. Like-named read-outs stand apart in the source and are kept apart here.

This note sets out measurements from US9429582B2, “Tyrosine-phosphorylated WBP2, a novel cancer target and biomarker” (National University of Singapore, priority 2010, dated 2016).

What all share (type): cell-based, human
The test system of test [1] is WBP2-Y192-231E mutant-expressing MCF7. In words: Cell proliferation (MTS / cell numbers) of WBP2-Y192-231E mutant-expressing MCF7. How it is done:
(§1) A: Whole cell lysates from vector, WBP2-WT, WBP2-Y192-231E mutant and WBP2-Y192-231F mutant expressing MCF7 or Y192-231E mutant expressing MCF7 with WBP2 knockdown were used for IB analysis with antibodies indicated. B: Vector, WBP2-WT, WBP2-Y192-231E mutant or WBP2-Y192-231F mutant-expressing MCF7 were co-transfected with TOPFlash (top panel) or ERE-Luciferase (bottom panel) reporter construct. For cells co-transfected ERE-luciferase, they were either left alone or stimulated with 50 ng/ml Wnt3a ligand for 16 hrs. TCF/ERα luciferase activities in various conditions were then assayed. **P<0.01, ***P<0.001, Student's t-test (2-tailed). C: Vector or WBP2-Y192-231E mutant-expressing MCF7 were treated with indicated concentrations of Tamoxifen(Tam) and/or FH535. Cell numbers were measured. D: Whole cell lysates from WBP2-Y192-231E mutant-expressing MCF7 treated with 2 μM Tam and/or 15 μM FH5353 were harvested at day 2-4 post-treatment and used for IB analysis with antibodies indicated.
Effect of knockdown of E2F1 and E2F3 on MCF7 cells overexpressing WBP2-Y192-231E. A. MCF7 cells expressing WBP2-Y192-231E were transfected with indicated siRNAs and knockdown efficiency was confirmed using western blotting. B. Cells were co-transfected with indicated siRNAs and E2F reporter plasmid and harvested for luciferase assay after 48 hours. Luciferase readings were normalized against constitutive TK promoter renilla luciferase readings. C. Cells were transfected with indicated siRNAs and BrdU incorporation assay was performed. Percentages of BrdU positive cells relative to control siRNA treated cells were plotted as bar charts. D. Cells were transfected with indicated siRNAs. MTS assay was performed on day 3. Percentages of cell proliferation relative to control siRNA treated cells were plotted as bar charts.
Whole cell lysates from vector, WBP2-WT, WBP2-Y192-231E mutant and WBP2-Y192-231F mutant expressing MCF7 (A) or Y192-231E mutant expressing MCF7 with WBP2 knockdown (B) were used for IB analysis with antibodies indicated. Their expression levels were quantified in three independent experiments and the averages were presented relative to actin. Representative blots (order in lanes from left to right: vector, WBP2, Y192-231E, Y192F) were presented as insets to the bar graphs. **P<0.01, ***P<0.001, Student's t-test (2-tailed) relative to vector. Vector, WBP2-WT, WBP2-Y192-231E mutant or WBP2-Y192-231F mutant-expressing MCF7 were cotransfected with TOPFlash(C) or ERE-Luciferase(D) reporter construct. For cells co-transfected ERE luciferase, they were either left alone or stimulated with 50 ng/ml Wnt3a ligand for 16 hrs. TCF(C)/ER[…](D) luciferase activities in various conditions were then assayed and analyzed in relative to untreated vector control. **P<0.01, ***P<0.001, Student's t-test (2-tailed). E: Vector or WBP2-Y192-231E mutant-expressing MCF7 were treated with indicated concentrations of 2 µM tamoxifen (Tam) and/or 15 µM FH535 for 4 days. Cell numbers were measured daily and compared in relative to vehicle treated vector-expressing cells on Day 0. F: Vector or WBP2-Y192-231E mutant-expressing MCF7 were treated with indicated concentrations (0-50 µM) of FH535 for 2 days. Cell numbers were measured and compared in relative to vehicle-treated cells. Their […] were analyzed statistically with SPSS 13.0. G: Whole cell lysates from WBP2-Y192-231E mutant-expressing MCF7 treated with 2 μM Tam and/or 15 μM FH5353 were harvested at day 2-4 post-treatment and used for IB analysis with antibodies indicated. H: Vector or WBP2-Y192-231E mutant-expressing MCF7 were treated with indicated concentrations of 100 nM fulvestrant and/or 15 µM FH535 for 4 days. Cell numbers were measured on day 2 and day 4 and compared in relative to vehicle-treated control at each day (Top Panel). These treated cells were harvested for IB analysis with antibodies indicated (Bottom Panel). […]

The next test relates to ERα. In words: Immunoblot of ERα expression in drug-treated WBP2-Y192-231E mutant-expressing MCF7. How it is done:
For cells co-transfected ERE-luciferase, they were either left alone or stimulated with 50 ng/ml Wnt3a ligand for 16 hrs. TCF/ERα luciferase activities in various conditions were then assayed. **P<0.01, ***P<0.001, Student's t-test (2-tailed). […] Cell numbers were measured.
Their expression levels were quantified in three independent experiments and the averages were presented relative to actin. […] For cells co-transfected ERE luciferase, they were either left alone or stimulated with 50 ng/ml Wnt3a ligand for 16 hrs. TCF(C)/ER[…](D) luciferase activities in various conditions were then assayed and analyzed in relative to untreated vector control. **P<0.01, ***P<0.001, Student's t-test (2-tailed). […] Cell numbers were measured daily and compared in relative to vehicle treated vector-expressing cells on Day 0. […] Cell numbers were measured and compared in relative to vehicle-treated cells. […] Cell numbers were measured on day 2 and day 4 and compared in relative to vehicle-treated control at each day (Top Panel). These treated cells were harvested for IB analysis with antibodies indicated (Bottom Panel).
First, we exposed WBP2 phospho-mimic expressing MCF7 cells to serial concentrations of fulvestrant (0.1 nM, 1 nM, 10 nM, 100 nM and 1 μM) and probed for ERα expression to determine the effective working concentration. […] Next, we compared the growth and proliferation of WBP2 phospho-mimic mutant expressing MCF7 in the presence of 100 nM fulvestrant or 15 μM FH535.

For the next test, the system named is vector-expressing MCF7. In words: Cell proliferation (MTS / cell numbers) of vector-expressing MCF7. As to conditions: Homo sapiens, 96 h; MCF7 cells expressing vector; day 4; 100 nM fulvestrant or 15 μM FH535; read-out: inhibition of growth / reduction of proliferation. As to the method:
as §1
Whole cell lysates from vector, WBP2-WT, WBP2-Y192-231E mutant and WBP2-Y192-231F mutant expressing MCF7 (A) or Y192-231E mutant expressing MCF7 with WBP2 knockdown (B) were used for IB analysis with antibodies indicated. Their expression levels were quantified in three independent experiments and the averages were presented relative to actin. Representative blots (order in lanes from left to right: vector, WBP2, Y192-231E, Y192F) were presented as insets to the bar graphs. **P<0.01, ***P<0.001, Student's t-test (2-tailed) relative to vector. […] TCF(C)/ER[…](D) luciferase activities in various conditions were then assayed and analyzed in relative to untreated vector control. **P<0.01, ***P<0.001, Student's t-test (2-tailed). […] Cell numbers were measured daily and compared in relative to vehicle treated vector-expressing cells on Day 0. […] Cell numbers were measured and compared in relative to vehicle-treated cells. Their […] were analyzed statistically with SPSS 13.0. […] Cell numbers were measured on day 2 and day 4 and compared in relative to vehicle-treated control at each day (Top Panel). […]

Take `C[C@]12CC[C@@H]3c4ccc(O)cc4C[C@@H](CCCCCCCCC[S+]([O-])CCCC(F)(F)C(F)(F)F)[C@H]3[C@@H]1CC[C@@H]2O` (stereo partly drawn) [fulvestrant]: the inhibition at 0.1 µM in test [1] (Homo sapiens, 96 h, MCF7 cells expressing Y192-231E mutant, day 4, 100 nM fulvestrant or 15 μM FH535, read-out: inhibition of growth / reduction of proliferation) was roughly 40%; in the test on vector-expressing MCF7 it was roughly 50%. In addition, the ERα expression entry in the test on ERα (WBP2 phospho-mimic expressing MCF7, one hundred nM fulvestrant, data not shown) is reported as “almost completely abolished”.
As for `CC/C(=C(\c1ccccc1)c1ccc(OCCN(C)C)cc1)c1ccccc1` [Tamoxifen], the growth inhibition entry in test [1] (Y192-231E-expressing MCF7 treated with Tamoxifen) is “No significant growth inhibition”. For the same molecule, the retardation of proliferation entry in test [1] (Y192-231E-expressing cells, higher doses of up to 2000 nM) was “unremarkable”. In addition, the ERα expression entry in the test with ERα is “but not Tamoxifen significantly reduced”.
